Measured values as given in patent US9708251B2, “Unsaturated fatty alcohol alkoxylates from natural oil metathesis” (Stepan Company, priority 2012, dated 2017).

Experiments:
Type in all cases: physicochemical
[1] = Agrichemical solvent analysis: active solubility; settings: room temperature
Procedure: Solvency strength of potential agrichemical solvents is evaluated by identifying the solubility level of three standard pesticides in the solvent by weight percent: 2,4-D acid, imidacloprid, and tebuconazole. […] The active material is also accurately weighed before addition. Initial amounts of active material are approximately: 2,4-D: 0.3 g; imidacloprid: 0.02 g; tebuconazole: 0.3 g. Solvent and pesticide active are combined, allowed to mix for 1 h at room temperature, and then inspected for the presence of undissolved active material. Additional active material is added in appropriately small increments until it no longer dissolves completely. This mixture is then stirred for 24 h at room temperature, and if the active has completely dissolved, additional active ingredient is added and the mixture is stirred another 24 h at room temperature. The percent solubility is recorded, and performance is compared with that of a standard agricultural solvent.

[2] = Emulsion stability testing of nonionic emulsifiers, Hallcomid solvent series; parameters: key to 24 h separation, appearance / 1 h separation, appearance / 1 h separation, amount: C = creamy; CO = creamy oil; O = oil; GC = gritty cream; NS = no separation; OC = oily cream; key to Spon. (spontaneity): G = good; F = fair; P = poor
[3] = Solubility evaluation: enhanced oil recovery (EOR); settings: for Comments (appearance) / Soluble?: 1 wt. % sample, 1% sodium chloride brine
Procedure: Samples are prepared in a 10% stock solution and evaluated at 1 wt. % with a brine concentration of 1% sodium chloride. Replicate experiments are performed at each temperature with each sample.

[4] = Surfactant phase behavior study (cross-polarized microscopy); settings: room temperature
Method in brief: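 Saturated analogs serve as comparators. Water dilutions of the product, stepped at 2-4% near transitions, equilibrated between slide and cover glass and assigned phase by cross-polarized microscopy texture at 100-400×, 20-22° C. Boundaries lie within ±5% actives; some samples checked by viscosity at 25° C.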

[5] = Emulsion stability testing of nonionic emulsifiers, Hallcomid solvent series; parameters: key: C = creamy; CO = creamy oil; O = oil; GC = gritty cream; NS = no separation; OC = oily cream; settings: Bifenthrin 240 g/L in Hallcomid M-8-10, 34 ppm water
[6] = Emulsion stability testing of nonionic emulsifiers, aromatic solvent series; parameters: key to 24 h separation, appearance / 1 h separation, appearance / 1 h separation, amount: C = creamy; CO = creamy oil; O = oil; GC = gritty cream; NS = no separation; OC = oily cream; key to Spon. (spontaneity): G = good; F = fair; P = poor
[7] = 2,4-D diester 480 g/L in Hallcomid M-8-10, 34 ppm water
[8] = 2,4-D diester 480 g/L in Hallcomid M-8-10, 1000 ppm water
[9] = Bifenthrin 240 g/L in Hallcomid M-8-10, 34 ppm water
[10] = Bifenthrin 240 g/L in Hallcomid M-8-10, 1000 ppm water
[11] = Tebuconazole 360 g/L in Hallcomid M-8-10, 34 ppm water
[12] = Tebuconazole 360 g/L in Hallcomid M-8-10, 1000 ppm water
[13] = 2,4-D ester 480 g/L in Exxsol D-110, 34 ppm water
[14] = 2,4-D ester 480 g/L in Exxsol D-110, 1000 ppm water
[15] = Bifenthrin 240 g/L in Aromatic 100, 34 ppm water
[16] = Bifenthrin 240 g/L in Aromatic 100, 1000 ppm water
[17] = Tebuconazole 360 g/L in N-methyl-2-pyrrolidone, 34 ppm water
[18] = Tebuconazole 360 g/L in N-methyl-2-pyrrolidone, 1000 ppm water

Which results are given for `C=CCCCCCCCCOCCOCCOCCO` [A10-7]?
solubility of 2,4-D Acid in the solvent [1]: 29.5 weight percent; solubility of Imidacloprid in the solvent [1]: 2.9 weight percent; solubility of Tebuconazole in the solvent [1]: 13.5 weight percent; 1 h separation, amount [2, 7]: 5.6 mL; 1 h separation, appearance [2, 7]: C; 24 h separation, amount [2, 7]: 10 mL; 24 h separation, appearance [2, 7]: C; Spon. (spontaneity) [2, 7]: F; 1 h separation, amount [2, 8]: 6 mL; 1 h separation, appearance [2, 8]: C; 24 h separation, amount [2, 8]: 7.5 mL; 24 h separation, appearance [2, 8]: C; Spon. (spontaneity) [2, 8]: F; 1 h separation, amount [2, 9]: NS; Spon. (spontaneity) [2, 9]: F; 1 h separation, amount [2, 10]: 10 mL; 1 h separation, appearance [2, 10]: CO; 24 h separation, amount [2, 10]: 3 O, 3 CO; Spon. (spontaneity) [2, 10]: P; 1 h separation, amount [2, 11]: 2.5 mL; 1 h separation, appearance [2, 11]: C; 24 h separation, amount [2, 11]: 5 mL; 24 h separation, appearance [2, 11]: C; Spon. (spontaneity) [2, 11]: F; 1 h separation, amount [2, 12]: 3 mL; 1 h separation, appearance [2, 12]: C; 24 h separation, amount [2, 12]: 5 mL; 24 h separation, appearance [2, 12]: C; Spon. (spontaneity) [2, 12]: F; Comments (appearance) ([3]; 20.7 °C): white, opaque; Soluble? ([3]; 20.7 °C): no; Comments (appearance) ([3]; 51.5 °C): white, opaque; Soluble? ([3]; 51.5 °C): no; Comments (appearance) ([3]; 56.1 °C): white, hazy; Soluble? ([3]; 56.1 °C): no; Overall performance (EOR solubility) ([3]; versus control fatty alcohol ethoxylate): Overall performance of A10-7: Equal to control; combined isotropic phases (clear and opaque), share of the total [4]: about 50%; Isotropic Clear phase region ([4]; in deionized water): 70-100 % Actives Level; Isotropic Opaque phase region ([4]; in deionized water): 0-20 % Actives Level; Lamellar phase region ([4]; in deionized water): 20-70 % Actives Level; 24 h separation, amount [5]: NS; 1 h separation, amount [6, 13]: 4 mL; 1 h separation, appearance [6, 13]: CO; 24 h separation, amount [6, 13]: 1 O, 4.5 CO; Spon. (spontaneity) [6, 13]: P; 1 h separation, amount [6, 14]: 4 mL; 1 h separation, appearance [6, 14]: O; 24 h separation, amount [6, 14]: 4 mL; 24 h separation, appearance [6, 14]: O; Spon. (spontaneity) [6, 14]: P; 1 h separation, amount [6, 15]: 7 mL; 1 h separation, appearance [6, 15]: CO; 24 h separation, amount [6, 15]: 6.5 mL; 24 h separation, appearance [6, 15]: CO; Spon. (spontaneity) [6, 15]: P; 1 h separation, amount [6, 16]: 6 mL; 1 h separation, appearance [6, 16]: O; 24 h separation, amount [6, 16]: 5 mL; 24 h separation, appearance [6, 16]: O; Spon. (spontaneity) [6, 16]: P; 1 h separation, amount [6, 17]: 2 mL; 1 h separation, appearance [6, 17]: GC; 24 h separation, amount [6, 17]: 3 mL; 24 h separation, appearance [6, 17]: GC; Spon. (spontaneity) [6, 17]: P; 1 h separation, amount [6, 18]: 2.5 mL; 1 h separation, appearance [6, 18]: GC; 24 h separation, amount [6, 18]: 3 mL; 24 h separation, appearance [6, 18]: GC; Spon. (spontaneity) [6, 18]: P
